Where a SMILES comes first, the peptide text is derived from it. The star is where a group is joined. Cbz = O=C(OCc1ccccc1)*
Tests used:
BRD2/3/4 proteins = experiment: Western blot of 293T cells transfected with SPOP and BRD2/3/4, with or without MG132; format: cell-based, human; conditions: 20 μM MG132 for 8 hours
Experimental: (§1) Cell lysates or immunoprecipitates were subjected to SDS-PAGE, and proteins were transferred to nitrocellulose membranes (GE Healthcare Sciences). The membranes were blocked in Tris-buffered saline (TBS, pH 7.4) containing 5% non-fat milk and 0.1% Tween-20, washed twice in TBS containing 0.1% Tween-20, and incubated with primary antibody overnight at 4° C., followed by secondary antibody for 1 hour at room temperature. The proteins of interest were visualized using ECL chemiluminescence system (Santa Cruz Biotechnology). Densitometry analysis of protein bands was analyzed on the Gel-Pro Analyzer software.

BRD2/3/4 = experiment: Western blot and RT-qPCR of BRD2/3/4 in inhibitor-treated LNCaP cells; format: cell-based, human; conditions: 8 hours, Bortezomib 200 nM, MG132 20 μM; for BRD2/3/4 protein level: MLN4924 200 nM
Experimental: as §1
Total RNA was isolated from transiently transfected cells using the Trizol reagent (Thermo Fisher Scientific), and cDNA was reverse-transcribed using the Superscript RT kit (TOYOBO, Japan) according to the manufacturer's instructions. PCR amplification was performed using the SYBR Green PCR master mix Kit (TOYOBO, Japan). All quantization was normalized to the level of endogenous control GAPDH. The primer sequences for the SYBR green qPCR used were as follows: BRD2-F: 5′-[…]-3′ (SEQ ID NO:10); BRD2-R: 5′-[…]-3′ (SEQ ID NO:11); BRD3-F: 5′-[…]-3′ (SEQ ID NO:12); BRD3-R: 5′-[…]-[…]-3′ (SEQ ID NO:13); BRD4-F: 5′-[…]-GAG-3′ (SEQ ID NO:14); BRD4-F: 5′-[…]-3′ (SEQ ID NO:15); RAC1-F: 5′-[…]-3′ (SEQ ID NO:16); RAC1-R: 5′-[…]-3′ (SEQ ID NO:17); FDFT1-F: 5′-ACTAT-[…]-3′ (SEQ ID NO:18); FDFT1-R: 5′-[…]-[…]-3′ (SEQ ID NO:19); DHCR24-F: 5′-[…]-GAGC-3′ (SEQ ID NO:20); DHCR24-R: 5′-[…]-3′ (SEQ ID NO:21); DHCR7-F: 5′-[…]-3′ (SEQ ID NO:22); DHCR7-R: 5′-[…]-3′ (SEQ ID NO:23); MVD-F: 5′-[…]-3′ (SEQ ID NO:24); MVD-R: 5′-CACAC-[…]-3′ (SEQ ID NO:25); PSA-F: 5′-[…]-[…]-3′ (SEQ ID NO:26); PSA-R: 5′-[…]-3′ (SEQ ID NO:27); TMPRSS2-F: 5′-[…]-3′ (SEQ ID NO:28); TMPRSS2-R: 5′-[…]-3′ (SEQ ID NO:29); MYC-F: 5′-[…]-3′ (SEQ ID NO:30); MYC-R: 5′-CTTGT-[…]-3′ (SEQ ID NO:31); AR-F: 5′-[…]-TCACC-3′ (SEQ ID NO:32); AR-R: 5′-[…]-3′ (SEQ ID NO:33); GAPDH-F: 5′-[…]-3′ (SEQ ID NO:34); and GAPDH-R: 5′-[…]-3′ (SEQ ID NO:35).

C4-2 xenograft tumors = experiment: Prostate cancer xenografts in mice, tumor volume; format: in vivo; conditions: SPOP-F133V C4-2 xenografts, GDC-0068 100 mg/kg with JQ1 50 mg/kg, 5 days a week, day 21
Experimental: 6-week-old NOD-SCID IL-2-receptor gamma null (NSG) mice were generated and randomly divided into different experimental groups as indicated. All mice were housed in standard conditions with a 12-hour light/dark cycle and access to food and water ad libitum. For BRD2/3/4 knockdown studies, C4-2 cells (5×10^6), infected with lentivirus expressing empty vector (EV) or HA-SPOP-F133V mutant in combination with control shRNA or BRD2/3/4-specific shRNA, were mixed with Matrigel (in 100 μL 1×PBS plus 100 μL Matrigel (BD Biosciences)) and injected s.c. into the right flank of mice. […] Growth in tumor volume was measured in a blinded fashion using digital caliper, and tumor volumes were estimated using the formula (L×W2)/2, where L is length of tumor and W is width. The volumes of tumors were compared, and P values were determined by a two-tailed Student's t test. Upon the completion of treatment, tumor grafts were harvested. Tumor tissues were divided, and a portion was subjected to FFPE. the rest was frozen for protein and RNA extraction.

solid tumors = conditions: patients with solid tumors (Saura et al. 2017); cited from earlier work
AKT-mTORC1 pathway = experiment: Western blot of AKT and S6K phosphorylation in C4-2 cells; format: cell-based, human; conditions: SPOP-F133V C4-2 cells, GDC-0068 1 μM, 24 hours
Experimental: as §1

C4-2 cells = experiment: Cell proliferation assay (MTS) and trypan blue assay, C4-2 cells; format: cell-based, human; conditions: SPOP-F133V C4-2 cells, GDC-0068 0.2 μM with JQ1 0.25 μM, 5 days
Experimental: CellTiter 96® AQueous One Solution Cell Proliferation Assay (MTS) (Promega) was used to measure cell growth according to the manufacturer's instructions. Briefly, cells were plated in 96-well plates at a density of 2,000 cells per well. At the indicated times, 20 μL of Cell Titer 96R Aqueous One Solution Reagent was added to medium. After incubating for 1 hour at 37° C. in the cell incubator, cell growth was measured in a microplate reader at 490 nm.
Trypan blue assay was performed to measure cell growth according to the manufacturer's instructions. Briefly, cells were plated in 6-well plates at a density of about 5×10^4 to about 1×10^5 cells per well. At the indicated time points, cells were trypsinized and suspended in 1 mL 1×PBS. 100 μL cells and 100 μL trypan blue solution (Sigma-Aldrich) were mixed, and the number of viable cells was measured using the Bio-Rad automated cell counter.

SMILES	Effect on the decrease of BRD2/3/4 proteins caused by wild-type SPOP (BRD2/3/4 proteins)	BRD2/3/4 mRNA expression (BRD2/3/4)	BRD2/3/4 protein level (BRD2/3/4)	SPOP mutation-conferred resistance to BET inhibitor, tumors in mice (C4-2 xenograft tumors)	Antitumor efficacy in patients (solid tumors)	SPOP mutation-induced activation of AKT downstream pathways (AKT-mTORC1 pathway)	SPOP mutation-conferred resistance to BET inhibitor, cells in culture (C4-2 cells)
CC(C)C[C@@H](C=O)NC(=O)[C@H](CC(C)C)NC(=O)[C@H](CC(C)C)NC(=O)OCc1ccccc1 [MG132] (Cbz-Leu-Leu-Leu-aldehyde)	completely reversed	not mRNA expression	increased BRD2/3/4 protein				
NS(=O)(=O)OC[C@@H]1C[C@@H](n2ccc3c(N[C@H]4CCc5ccccc54)ncnc32)C[C@@H]1O [MLN4924]			caused accumulation of BRD2/3/4 at protein level				
CC(C)NC[C@@H](C(=O)N1CCN(c2ncnc3c2[C@H](C)C[C@H]3O)CC1)c1ccc(Cl)cc1 [GDC-0068]				completely overcame	effective antitumor efficacy	abolished	completely overcame
CC(C)C[C@H](NC(=O)[C@H](Cc1ccccc1)NC(=O)c1cnccn1)B(O)O [Bortezomib]		not mRNA expression	increased BRD2/3/4 protein				

— patent publication US11712439B2, “Methods and materials for identifying and treating bet inhibitor-resistant cancers” (Mayo Foundation for Medical Education and Research, priority 2017, dated 2023)
